Measured values reported in patent US8217030B2, “Association of a sinus node if current inhibitor and a beta blocker” (Les Laboratoires Servier, priority 2008, dated 2012).

Columns and labels:
[1] = system: patients with angina pectoris treated with β-blockers; assay: treadmill exercise tolerance test (ETT), Bruce protocol, clinical study; format: in vivo, human
Procedure: (§1) The patients selected for this clinical study are men and women from 18 to 75 years of age who have suffered from angina pectoris for at least 3 months and been treated with β-blockers such as atenolol (50 mg o.d.) or any other β-blocker at an equivalent dose for at least 3 months. These patients have, despite their treatment, a positive exercise tolerance test (ETT) and daily symptoms of angina pectoris.
(§2) This double-blind, parallel-group, international clinical study was carried out in 889 patients. The patients, all of whom are receiving atenolol, are randomised into two groups: • in addition to the β-blocker, the first group is given ivabradine (hydrochloride) at a dose of 5 mg twice a day for two months and then at a dose of 7.5 mg twice a day for a further two months; • in addition to the β-blocker, the second group is given a placebo for 4 months.
The patients are subjected to a treadmill exercise tolerance test (ETT) in accordance with the Bruce protocol before ivabradine is administered (that is when receiving β-blocker on its own), and after 4 months of treatment with the association between ivabradine and atenolol. The principal parameters measured in the course of the effort test are: • total exercise duration (TED)—the TED includes the time taken for the treadmill to come to a stop or, that is, a duration of about 10 seconds starting from the patient's request to stop the exercise; • the time until the “angina pectoris” pain forces the patient to stop the exercise (TLA); • the time until the onset of the “angina pectoris” pain (TAO); • the time taken for a 1 mm ST segment depression (TST) to appear on the electrocardiographic recording, this being a reflection of ischaemia and corresponding to the electrical sign of pain in the cardiac muscle.
These measurements are made at trough activity of the association of active ingredients or, that is, 12±1 hours and 24±2 hours after administration of the active ingredients.
The mean improvements in the various parameters measured during the treadmill exercise test, between the value measured before the start of treatment with ivabradine and the end of the treatment period, are set out in the table below: […]

[2] = system: patients with angina pectoris treated with β-blockers; assay: heart rate at rest in clinical study; format: in vivo, human; details: after 4 months of treatment; heart rate at rest on entry 67±7 beats per minute
Procedure: as §1, §2
The patients have a mean age of 60±8 years. On entry into the study, the mean systolic/diastolic arterial pressure and heart rate of the patients at rest are respectively, on average: 127±12/78±7 mmHg and 67±7 beats per minute. After 4 months of treatment with the association, the heart rate has reduced by 9±10 bpm (β-blocker+placebo 1±10 bpm).

[3] = mean ± SD, before ivabradine vs after 4 months of treatment, on top of atenolol, at trough activity

SMILES | exercise tolerance ([1]; patients already receiving a standard dose of β-blockers) | Improvement in time taken for a 1 mm ST segment depression (TST) [1, 3] [s] | Improvement in time until angina pectoris pain forces the patient to stop the exercise (TLA) [1, 3] [s] | Improvement in time until onset of angina pectoris pain (TAO) [1, 3] [s] | Improvement in total exercise duration (TED) ([1]; mean ± SD, before ivabradine vs after 4 months of treatment, on top of atenolol, ivabradine 5 mg b.i.d. 2 months then 7.5 mg b.i.d. 2 months, at trough activity) [s] | reduction of heart rate [2] [bpm]
COc1cc2c(cc1OC)CC(=O)N(CCCN(C)C[C@H]1Cc3cc(OC)c(OC)cc31)CC2 [ivabradine, 3-{3-[{[(7S)-3,4-dimethoxybicyclo[4.2.0]octa-1,3,5-trien-7-yl]methyl}(methyl)amino]propyl}-7,8-dimethoxy-1,3,4,5-tetrahydro-2H-3-benzazepin-2-one] | capable of improving exercise tolerance |  |  |  |  | 
CC(C)NCC(O)COc1ccc(CC(N)=O)cc1 (stereo not drawn) [β-blocker + placebo, atenolol] |  | 15 ± 87 | 9 ± 64 | 23 ± 79 | 8 ± 64 | 1±10
